Test: Repeated-treatment efficacy for removing an intravenous dose of 238Pu (excretion, tissue retention, clinical observations), female and male arms
Format: in vivo, Swiss-Webster mice
Details: male mice; for 238Pu percent increase in excretion, Total Excretion / 238Pu percent increase in excretion, Total Feces / 238Pu percent increase in excretion, Total Urine: over untreated control group; for ^238Pu percent tissue reduction, GI Trace / ^238Pu percent tissue reduction, Kidney / ^238Pu percent tissue reduction, Liver / ^238Pu percent tissue reduction, Soft Tissue / ^238Pu percent tissue reduction, Total Body / ^238Pu percent tissue reduction, Total Bone / ^238Pu percent tissue reduction, GI Tract: vs untreated control group
Method: The objective of this study was to characterize the efficacy of 3,4,3-L1(1,2-HOPO) at enhancing elimination from an internal plutonium burden in female and male Swiss-Webster mice administered a soluble citrate complex of ^238Pu and treated multiple times, starting at 24 hours after the exposure. Efficacy was evaluated by comparing the tissue contents, urinary and fecal excretions of ^238Pu in treated animals versus untreated animals.
The medical countermeasure 3,4,3-L1(1,2-HOPO) was administered parenterally (ip) or orally (po) via consecutive injections or gavages (six daily or twelve twice daily) starting at 24 hours post contamination at the following four selected doses: 30 μmol/kg ip, 150 μmol/kg po, 300 μmol/kg po, and 600 μmol/kg po (equivalent to respective approximate human doses range of […], using the accepted conversion system of mouse doses into human equivalent doses—HED—based on body surface area). Oral doses also included the permeability enhancer selected during formulation development work.
• Challenge isotope: ^238Pu • Challenge dose: 25 nCi (i.e., approximately 0.8 μCi/kg) • Route of contamination: Intravenous (iv) tail-vein • Route of treatment: Intraperitoneal Injection (ip) or Oral (po) • Frequency of treatment: Multiple (once- or twice-daily for 6 days) doses, starting 24 hr postcontamination • Treatment dose calculation: Dose calculations (mg/kg or μmol/kg) for the decorporation agent were based on the individual body weight measured after contamination. • Study Duration: 11 days, in-life
c. […] Test article and control dose formulations were prepared within 1 day of dose administration, by weighing out the appropriate amount of test article, dispersing in vehicle. For ip solutions, the test article was used alone, while for oral suspensions, a mixture of test article and excipient (90:10, w:w) was used. The pH was adjusted to 7.0-7.4 for ip administration and 5.0-5.5 for oral administration with sterile NaOH. Dose formulations were prepared at room temperature and filter-sterilized. • Storage: 2-8° C.; refrigerated; protected from light. • Characterization: The concentration of each test article formulation was verified by high-performance liquid chromatography-mass spectrometry. • Test Article Handling: Test, reference, and control article formulations were handled with the use of eye protection, gloves, and a protective laboratory coat. • Correct Dose Assurance: The test article was weighed with calibrated balances. The administration of each dose formulation was properly documented, and the amount administered to each animal recorded.
e. Experimental Procedures (In-Life Evaluations and Euthanasia) • Contamination: Single administration by intravenous (iv) tail-vein injection (0.2 mL injection volume) under isoflurane anesthesia. Three standard 0.2 mL injections were performed into polyethylene bottles and pre-loaded with aliquots of concentrated nitric acid on each injection day. Six female and six male mice were culled for necropsy 1 hr post-contamination and were used as standards. A11 standards were processed and counted together with the final samples to allow verification of the contamination dose. • Dose Administration: Single administration by intraperitoneal injection (ip) or oral gavage (po) under isoflurane anesthesia. • Mortality/Morbidity: Assessed at least once daily. • Clinical Observations: Recorded once daily (4 hr post-dose on day of treatment), or more often as clinical signs warranted. […]

[1] = 30 μmol/kg, IP, 11-day necropsy
[2] = 150 μmol/kg, 2 doses PO, 7-day necropsy
[3] = 300 μmol/kg, 1 dose PO, 7-day necropsy
[4] = 300 μmol/kg, 1 dose PO, 11-day necropsy
[5] = 300 μmol/kg, 2 doses PO, 7-day necropsy
[6] = 300 μmol/kg, PO, 11-day necropsy
[7] = 600 μmol/kg, 1 dose PO, 7-day necropsy
[8] = 600 μmol/kg, 1 dose PO, 11-day necropsy
[9] = 600 μmol/kg, PO, 11-day necropsy
[10] = 600 μmol/kg, dose PO, 7-day necropsy

O=C(NCCCN(CCCCN(CCCNC(=O)c1cccc(=O)n1O)C(=O)c1cccc(=O)n1O)C(=O)c1cccc(=O)n1O)c1cccc(=O)n1O [Formulation 343]
^238Pu excretion, Total Excretion, Avg [1]: 79.89 percent recovered dose
^238Pu excretion, Total Feces, Avg [1]: 48.24 percent recovered dose
^238Pu excretion, Total Urine, Avg [1]: 31.65 percent recovered dose
^238Pu retention, GI Tract, Avg [1]: 0.53 percent recovered dose
^238Pu retention, Kidney, Avg [1]: 0.12 percent recovered dose
^238Pu retention, Liver, Avg [1]: 2.42 percent recovered dose
^238Pu retention, Soft Tissue, Avg [1]: 1.14 percent recovered dose
^238Pu retention, Total Body, Avg [1]: 20.11 percent recovered dose
^238Pu retention, Total Bone, Avg [1]: 15.90 percent recovered dose
238Pu percent increase in excretion, Total Excretion [1]: 168.28%
238Pu percent increase in excretion, Total Feces [1]: 188.96%
238Pu percent increase in excretion, Total Urine [1]: 144.22%
^238Pu percent tissue reduction, GI Trace [1]: 72.95%
^238Pu percent tissue reduction, Kidney [1]: 65.35%
^238Pu percent tissue reduction, Liver [1]: 85.55%
^238Pu percent tissue reduction, Soft Tissue [1]: 67.92%
^238Pu percent tissue reduction, Total Body [1]: 61.72%
^238Pu percent tissue reduction, Total Bone [1]: 46.83%
^238Pu excretion, Total Excretion, Avg [2]: 53.58 percent recovered dose
^238Pu excretion, Total Feces, Avg [2]: 30.26 percent recovered dose
^238Pu excretion, Total Urine, Avg [2]: 23.32 percent recovered dose
^238Pu retention, GI Tract, Avg [2]: 1.67 percent recovered dose
^238Pu retention, Kidney, Avg [2]: 0.31 percent recovered dose
^238Pu retention, Liver, Avg [2]: 21.40 percent recovered dose
^238Pu retention, Soft Tissue, Avg [2]: 3.16 percent recovered dose
^238Pu retention, Total Body, Avg [2]: 46.42 percent recovered dose
^238Pu retention, Total Bone, Avg [2]: 19.87 percent recovered dose
238Pu percent increase in excretion, Total Excretion [2]: 149.61%
238Pu percent increase in excretion, Total Feces [2]: 174.63%
238Pu percent increase in excretion, Total Urine [2]: 126.15%
^238Pu percent tissue reduction, GI Tract [2]: −17.71%
^238Pu percent tissue reduction, Kidney [2]: −4.19%
^238Pu percent tissue reduction, Liver [2]: 18.09%
^238Pu percent tissue reduction, Soft Tissue [2]: −5.31%
^238Pu percent tissue reduction, Total Body [2]: 27.68%
^238Pu percent tissue reduction, Total Bone [2]: 40.39%
^238Pu excretion, Total Excretion, Avg [3]: 64.11 percent recovered dose
^238Pu excretion, Total Feces, Avg [3]: 40.12 percent recovered dose
^238Pu excretion, Total Urine, Avg [3]: 24.00 percent recovered dose
^238Pu retention, GI Tract, Avg [3]: 1.23 percent recovered dose
^238Pu retention, Kidney, Avg [3]: 0.17 percent recovered dose
^238Pu retention, Liver, Avg [3]: 12.68 percent recovered dose
^238Pu retention, Soft Tissue, Avg [3]: 1.75 percent recovered dose
^238Pu retention, Total Body, Avg [3]: 35.89 percent recovered dose
^238Pu retention, Total Bone, Avg [3]: 20.06 percent recovered dose
238Pu percent increase in excretion, Total Excretion [3]: 162.02%
238Pu percent increase in excretion, Total Feces [3]: 225.83%
238Pu percent increase in excretion, Total Urine [3]: 110.04%
^238Pu percent tissue reduction, GI Tract [3]: 21.76%
^238Pu percent tissue reduction, Kidney [3]: 40.67%
^238Pu percent tissue reduction, Liver [3]: 43.47%
^238Pu percent tissue reduction, Soft Tissue [3]: 34.62%
^238Pu percent tissue reduction, Total Body [3]: 40.61%
^238Pu percent tissue reduction, Total Bone [3]: 40.06%
^238Pu retention, GI Tract, Avg [4]: 1.03 percent recovered dose
^238Pu retention, Kidney, Avg [4]: 0.15 percent recovered dose
^238Pu retention, Liver, Avg [4]: 9.46 percent recovered dose
^238Pu retention, Soft Tissue, Avg [4]: 2.20 percent recovered dose
^238Pu retention, Total Body, Avg [4]: 33.83 percent recovered dose
^238Pu retention, Total Bone, Avg [4]: 20.99 percent recovered dose
^238Pu percent tissue reduction, GI Trace [4]: 30.01%
^238Pu percent tissue reduction, Kidney [4]: 45.60%
^238Pu percent tissue reduction, Liver [4]: 48.32%
^238Pu percent tissue reduction, Soft Tissue [4]: 22.51%
^238Pu percent tissue reduction, Total Body [4]: 36.96%
^238Pu percent tissue reduction, Total Bone [4]: 30.34%
^238Pu excretion, Total Excretion, Avg [5]: 59.71 percent recovered dose
^238Pu excretion, Total Feces, Avg [5]: 34.14 percent recovered dose
^238Pu excretion, Total Urine, Avg [5]: 25.57 percent recovered dose
^238Pu retention, GI Tract, Avg [5]: 1.45 percent recovered dose
^238Pu retention, Kidney, Avg [5]: 0.18 percent recovered dose
^238Pu retention, Liver, Avg [5]: 15.12 percent recovered dose
^238Pu retention, Soft Tissue, Avg [5]: 2.41 percent recovered dose
^238Pu retention, Total Body, Avg [5]: 40.29 percent recovered dose
^238Pu retention, Total Bone, Avg [5]: 21.12 percent recovered dose
238Pu percent increase in excretion, Total Excretion [5]: 166.71%
238Pu percent increase in excretion, Total Feces [5]: 197.01%
238Pu percent increase in excretion, Total Urine [5]: 138.32%
^238Pu percent tissue reduction, GI Tract [5]: −2.24%
^238Pu percent tissue reduction, Kidney [5]: 39.84%
^238Pu percent tissue reduction, Liver [5]: 42.11%
^238Pu percent tissue reduction, Soft Tissue [5]: 19.73%
^238Pu percent tissue reduction, Total Body [5]: 37.23%
^238Pu percent tissue reduction, Total Bone [5]: 36.64%
^238Pu excretion, Total Excretion, Avg [6]: 66.17 percent recovered dose
^238Pu excretion, Total Feces, Avg [6]: 40.33 percent recovered dose
^238Pu excretion, Total Urine, Avg [6]: 25.84 percent recovered dose
238Pu percent increase in excretion, Total Excretion [6]: 142.80%
238Pu percent increase in excretion, Total Feces [6]: 180.35%
238Pu percent increase in excretion, Total Urine [6]: 107.78%
^238Pu excretion, Total Excretion, Avg [7]: 65.66 percent recovered dose
^238Pu excretion, Total Feces, Avg [7]: 40.53 percent recovered dose
^238Pu excretion, Total Urine, Avg [7]: 25.13 percent recovered dose
238Pu percent increase in excretion, Total Excretion [7]: 165.93%
238Pu percent increase in excretion, Total Feces [7]: 228.14%
238Pu percent increase in excretion, Total Urine [7]: 115.25%
^238Pu percent tissue reduction, GI Tract [7]: −3.93%
^238Pu percent tissue reduction, Kidney [7]: 11.13%
^238Pu percent tissue reduction, Liver [7]: 44.57%
^238Pu percent tissue reduction, Soft Tissue [7]: 17.40%
^238Pu percent tissue reduction, Total Body [7]: 43.17%
^238Pu percent tissue reduction, Total Bone [7]: 46.78%
^238Pu retention, GI Tract, Avg [8]: 0.75 percent recovered dose
^238Pu retention, Kidney, Avg [8]: 0.19 percent recovered dose
^238Pu retention, Liver, Avg [8]: 6.78 percent recovered dose
^238Pu retention, Soft Tissue, Avg [8]: 1.93 percent recovered dose
^238Pu retention, Total Body, Avg [8]: 27.67 percent recovered dose
^238Pu retention, Total Bone, Avg [8]: 18.02 percent recovered dose
^238Pu percent tissue reduction, GI Trace [8]: 49.06%
^238Pu percent tissue reduction, Kidney [8]: 32.19%
^238Pu percent tissue reduction, Liver [8]: 62.99%
^238Pu percent tissue reduction, Soft Tissue [8]: 32.01%
^238Pu percent tissue reduction, Total Body [8]: 48.44%
^238Pu percent tissue reduction, Total Bone [8]: 40.18%
^238Pu excretion, Total Excretion, Avg [9]: 72.33 percent recovered dose
^238Pu excretion, Total Feces, Avg [9]: 44.91 percent recovered dose
^238Pu excretion, Total Urine, Avg [9]: 27.43 percent recovered dose
238Pu percent increase in excretion, Total Excretion [9]: 156.10%
238Pu percent increase in excretion, Total Feces [9]: 200.32%
238Pu percent increase in excretion, Total Urine [9]: 114.39%
^238Pu retention, GI Tract, Avg [10]: 1.63 percent recovered dose
^238Pu retention, Kidney, Avg [10]: 0.25 percent recovered dose
^238Pu retention, Liver, Avg [10]: 12.44 percent recovered dose
^238Pu retention, Soft Tissue, Avg [10]: 2.22 percent recovered dose
^238Pu retention, Total Body, Avg [10]: 34.34 percent recovered dose
^238Pu retention, Total Bone, Avg [10]: 17.81 percent recovered dose

Reference: patent US11684614B2, “Formulations of hydroxypyridonate actinide/lanthanide decorporation agents” (priority 2017, dated 2023)
